Entries after “also recorded” stand apart in the source; their conditions may differ.
Columns and labels:
DU145 [1] = test: Western analysis; format: cell-based, human; conditions: 5 uM Los, 25 uM U0126, 20 uM PD98059, 250 μM AICAR
DU145 [2] = test: Western analysis; format: cell-based, human; conditions: for PAX2 expression / phospho-PAX2 protein levels / phospho-JNK protein levels: DU145; for PAX2 expression / phospho-PAX2 protein levels: 5 uM Los, 25 uM U0126, 20 uM PD98059, 250 μM AICAR
Experimental: . Following a 15 minute incubation period at 4° C. on an orbital shaker, cell lysate were then collected and centrifuged for 10 minutes at 12000×g to pellet cellular debris. The protein-containing supernatant were then collected and quantitated. Next, 25 μg protein extract was loaded onto an 8-16% gradient SDS-PAGE (Novex). Following electrophoresis, proteins were transferred to PVDF membranes, and then blocked with 5% nonfat dry milk in TTBS (0.05% Tween 20 and 100 mM Tris-Cl) for 1 hour. Blots were then probed with rabbit anti-PAX2 primary antibody (Zymed, San Francisco, Calif.) at a 1:2000 dilution. After washing, the membranes were incubated with anti-rabbit antibody conjugated to horseradish peroxidase (HRP) (dilution 1:5000; Sigma), and signal detection was visualized using chemilluminescence reagents (Pierce) on an Alpha Innotech Fluorchem 8900. As a control, blots were stripped and reprobed with mouse anti-β-actin primary antibody (1:5000; Sigma-Aldrich) and HRP-conjugated anti-mouse secondary antibody (1:5000; Sigma-Aldrich) and signal detection was again visualized.
Following a 15-minute incubation period at 4° C. on an orbital shaker, cell lysates were collected and centrifuged for 10 minutes at 12000×g to pellet cellular debris. The protein-containing supernatant were then collected and quantitated. Next, 25 ug protein extract was loaded onto an 8-16% gradient SDS-PAGE (Novex). Following electrophoresis, proteins were transferred to PVDF membranes, and then blocked with 5% nonfat dry milk in TTBS (0.05% Tween 20 and 100 mM Tris-Cl) for 1 hour. Blots were then probed with primary antibody (anti-PAX2, -phospho-PAX2, -JNK, -phospho-JNK, -ERK1/2, or -phospho-ERK1/2) (Zymed, San Francisco, Calif.) at 1:1000-2000 dilutions. After washing, the membranes were incubated with anti-rabbit antibody conjugated to horseradish peroxidase (HRP) (dilution 1:5000; Sigma), and signal detection was visualized using chemilluminescence reagents (Pierce) on an Alpha Innotech Fluorchem 8900. As a control, blots were stripped and re-probed with mouse anti-β-actin primary antibody (1:5000; Sigma-Aldrich) and HRP-conjugated anti-mouse secondary antibody (1:5000; Sigma-Aldrich), and signal detection was again visualized.
. Following a 15-min incubation period at 4° C. on an orbital shaker, cell lysates were collected and centrifuged for 10 min at 12,000 g to pellet cellular debris. The protein-containing supernatant were then collected and quantitated. Next, 25 μg protein extract was loaded onto an 8-16% gradient SDS-PAGE (Novex). Following electrophoresis, proteins were transferred to PVDF membranes, and then blocked with 5% non-fat dry milk in TTBS (0.05% Tween 20 and 100 mM Tris-Cl) for 1 h. Blots were then probed with rabbit anti-PAX2 primary antibody (Zymed, San Francisco, Calif.) at a 1:1000 dilution. After washing, the membranes were incubated with anti-rabbit antibody conjugated to horseradish peroxidase (HRP) (dilution 1:5000; Sigma), and signal detection was visualized using chemiluminescence reagents (Pierce) on an Alpha Innotech Fluorchem 8900. As a control, blots were stripped and reprobed with mouse anti-β-actin primary antibody (1:5000; Sigma-Aldrich) and HRP-conjugated anti-mouse secondary antibody (1:5000; Sigma-Aldrich), and signal detection was again visualized.

DU145 [3] = test: [3H] thymidine incorporation proliferation; format: cell-based, human; conditions: for effect of AngII on proliferation after Los pre-treatment: DU145, Los 30 min prior to AngII; for increase in proliferation: 72 hours
Experimental: Reagents and Treatments: […] Thymidine Incorporation: Proliferation of cells was determined by [3H] thymidine […] ([3H] TdR) incorporation into DNA. 0.5×10^6 cells/well of suspension DU145 cells were plated in their appropriate media. Cells were incubated for 72 h with or without the presence of AngII at the indicated concentrations. Cells were exposed to 37 kBq/ml [methyl-3H] thymidine in the same medium for 6 h. The adherent cells were fixed by 5% trichloroacetic acid and lysed in SDS/NaOH lysis buffer overnight. Radioactivity was measured by Beckman LS3801 liquid scintillation counter (Canada). Suspension cell culture was harvested by cell harvester (Packard instrument Co., Meriden, Conn.), and radioactivity was measured by 1450 microbeta liquid scintillation counter (PerkinElmer Life Sciences).

[4] = test system: human prostate cancer cells; conditions: xenograft models of human prostate cancer cells; cited from earlier work
DU145 [5] = test: Quantitative RT-PCR of gene expression; format: cell-based, human; conditions: for PAX2 message levels: DU145, Losartan (FIG. 20A)
Experimental: Total RNA was isolated using the SV Total RNA Isolation System (Promega). Briefly, approximately 1×10^6 cells were harvested by trypsinizing, and rinsed in PBS. Cells were then lysed and total RNA was isolated by centrifugation through spin columns. Total RNA (0.5 μg per reaction) was reverse transcribed into cDNA utilizing Oligo (dT) 15 primer (Promega) and AMV Reverse Transcriptase II enzyme (500 units per reaction; Promega) for first strand synthesis and Tfl DNA Polymerase for second strand synthesis (500 units per reaction; Promega) as per the manufacturers' protocol, with identical control samples treated without RT enzyme. Typically, 50 pg of each cDNA was used per ensuing PCR reaction Two-step QRT-PCR was performed on cDNA generated using the MultiScribe Reverse Transcripatase from the TaqMan Reverse Transcription System and the SYBR Green PCR Master Mix (PE Biosystems). […] Reactions were performed in MicroAmp Optical 96-well Reaction Plate (PE Biosystems). Forty cycles of PCR were performed under standard conditions using an annealing temperature of 60° C. Quantification was determined by the cycle number where exponential amplification began (threshold value) and averaged from the values obtained from the triplicate repeats. There was an inverse relationship between message level and threshold value. In addition, GAPDH was used as a housekeeping gene to normalize the initial content of total cDNA. […] All reactions were carried out in triplicate.
Forty cycles of PCR were performed under standard conditions using an annealing temperature of 56° C. In addition, GAPDH was amplified as a housekeeping gene to normalize the initial content of total cDNA. […] All reactions were run three times in triplicate.

HPrEC = test: Quantitative RT-PCR of gene expression; format: cell-based, human; conditions: for decrease in DEFB1 expression compared to untreated hPrEC / increase in PAX2 expression compared to untreated hPrEC: 10 uM AngII; for PAX2 expression as % of PAX2 levels in PC3: AngII
Experimental: RNA Isolation and Quantitative RT-PCR: In order to verify changes in DEFB1 expression levels RNA was collected after 4 days of PAX2 siRNA treatment. Briefly, total RNA was isolated using the SV Total RNA Isolation System (Promega, Madison, Wis.) from approximately 1×10^6 cells harvested by trypsinizing. Here, cells were lysed and total RNA was isolated by centrifugation through spin columns. Total RNA (0.5 μg per reaction) from both sources was reverse transcribed into cDNA utilizing random primers (Promega). AMV Reverse Transcriptase II enzyme (500 units per reaction; Promega) was used for first strand synthesis and Tfl DNA Polymerase for second strand synthesis (500 units per reaction; Promega) as per the manufacturer's protocol. In each case, 50 pg of cDNA was used per ensuing PCR reaction. Two-step QRT-PCR was performed on cDNA generated using the MultiScribe Reverse Transcripatase from the TaqMan Reverse Transcription System and the SYBR Green PCR Master Mix (Applied Biosystems).
The primer pair for DEFB1 was generated from the published DEFB1 sequence (Accession No. U50930). Forty cycles of PCR were performed under standard conditions using an annealing temperature of 56° C. In addition, GAPDH was amplified as a housekeeping gene to normalize the initial content of total cDNA. DEFB1 expression was calculated as the relative expression ratio between DEFB1 and GAPDH and was compared in cells lines before and after siRNA knock-down of PAX2 expression. All reactions were run three times in triplicate.
QRT-PCR Analysis: Quantitative real-time RT-PCR was performed to verify changes in gene expression following PAX2 knockdown in PC3 and DU145 prostate cancer cell lines and the hPrEC normal prostate epithelial cells. Approximately 1×10^6 cells were harvested by trypsinizing and the cells were rinsed in PBS. Cells were then lysed and total RNA was isolated by centrifugation through spin columns using the SV Total RNA Isolation System (Promega). cDNA was generated (0.5 μg per reaction) by reverse transcription by Oligo (dT) 15 primer (Promega) and AMV Reverse Transcriptase II enzyme (500 units per reaction; Promega) for first strand synthesis and Tfl DNA Polymerase for second strand synthesis (500 units per reaction; Promega) as per the manufacturer's protocol. Typically, 50 pg of each cDNA was used per ensuing PCR reaction. Two-step QRT-PCR was performed on cDNA generated using the MultiScribe Reverse Transcripatase from the TaqMan Reverse Transcription System and the SYBR Green PCR Master Mix (PE Biosystems). Reactions were performed in MicroAmp Optical 96-well Reaction Plate (PE Biosystems). Forty cycles of PCR were performed under standard conditions using an annealing temperature of 60° C. Quantification was determined by the cycle number where exponential amplification began (threshold value) and averaged from the values obtained from the triplicate repeats. There was an inverse relationship between message level and threshold value. In addition, GAPDH was used as a housekeeping gene to normalize the initial content of total cDNA. Relative expression was calculated as the ratio between each genes and GAPDH. All reactions were carried out in triplicate.
RNA isolation and quantitative RT-PCR: QRT-PCR was performed as previously described (Gibson et al., 2007). Briefly, total RNA (0.5 μg per reaction) from tissue sections were reverse transcribed into cDNA utilizing random primers (Promega). Two-step QRT-PCR was performed on cDNA generated using the MultiScribe Reverse Transcriptase from the TaqMan Reverse Transcription System and the SYBR Green PCR Master Mix (Applied Biosystems, Foster City, Calif.). The primer pairs for hBD-1 and c-MYC were generated from the published sequences (Table 7). Forty cycles of PCR were performed under standard conditions using an annealing temperature of 56.4° C. for hBD-1 and c-MYC and 55° C. for PAX2. […]

[6] = AngII 72 and 96 hours (FIG. 25 legend)

NC(=O)c1ncn([C@@H]2O[C@H](CO)[C@@H](O)[C@H]2O)c1N [AICAR, 5-Aminoimidazole-4-carboxamide-1-β-4-ribofuranoside]
phospho-STAT3 protein levels (DU145 [1]): also suppressed | PAX2 expression (DU145 [2]): suppresses PAX2 protein expression; also recorded: suppressed PAX2 expression; also recorded: suppression of PAX2 pression expression | phospho-PAX2 protein levels (DU145 [2]): suppression

N#CC(=C(/N)Sc1ccccc1N)/C(C#N)=C(\N)Sc1ccccc1N [Drug U0126]
phospho-STAT3 protein levels (DU145 [1]): reduced phospho-STAT3 protein levels | phospho-JNK protein levels (DU145 [2]): did not decrease | PAX2 expression (DU145 [2]): significant reduction of PAX2 expression | phospho-PAX2 protein levels (DU145 [2]): significant decrease or suppression

CCCCc1nc(Cl)c(CO)n1Cc1ccc(-c2ccccc2-c2nn[nH]n2)cc1 [Losartan]
phospho-STAT3 protein levels (DU145 [1]): suppresses phospho-STAT3 protein expression | phospho-STAT3 protein levels (DU145 [1]; listed as Los): reduced phospho-STAT3 protein levels | decrease in proliferation (DU145 [3]; DU145, 5 μM Losartan): 50% | effect of AngII on proliferation after Los pre-treatment (DU145 [3]): blocked the effect of AngII on proliferation | effect of AngII on proliferation after Los pre-treatment (DU145 [3]; listed as Los): suppressed the effect of AngII on proliferation | tumor growth and vascularization [4]: reduce tumor growth and vascularization | ERK protein levels (DU145 [2]; DU145, 5 uM Los): no effect | phospho-ERK (DU145 [2]; DU145, 5 uM Los): suppresses phosphor-ERK 1/2 | phospho-ERK (DU145 [2]; DU145, 5 uM Los, listed as Los): reduced the amount of phospho-ERK | PAX2 expression (DU145 [2]): suppresses | phospho-PAX2 protein levels (DU145 [2]): significant decrease or suppression | PAX2 expression (DU145 [2]; listed as Los): significant reduction of PAX2 expression | PAX2 expression compared to untreated control (DU145 [5]; DU145, 5 uM Los, 72 hours): 50% | PAX2 message levels (DU145 [5]): decreased by at least half | PAX2 message levels (DU145 [5]; listed as Los): significantly reduced PAX2 expression

COc1cccc(-c2cc(=O)c3ccccc3o2)c1N [PD98059]
phospho-STAT3 protein levels (DU145 [1]): reduced phospho-STAT3 protein levels | PAX2 expression (DU145 [2]): decreased PAX2 | phospho-PAX2 protein levels (DU145 [2]): significant decrease or suppression

Cc1cc(Cn2cnc3c2C[C@@H](C(=O)O)N(C(=O)C(c2ccccc2)c2ccccc2)C3)ccc1N(C)C [PD123319]
PAX2 expression increase (DU145 [5]; DU145, 5 uM PD123319, 48 hours): 7 fold | PAX2 expression increase (DU145 [5]; DU145, 5 uM PD123319, 96 hours): 8 fold

AngII: Angiotensin II, major regulator of blood pressure, potent mitogen, binds AT1R and AT2R (DRVYIHPF)
decrease in DEFB1 expression compared to untreated hPrEC (HPrEC; 72 hours): 35% | increase in PAX2 expression compared to untreated hPrEC (HPrEC; 72 hours): 66% | decrease in DEFB1 expression compared to untreated hPrEC (HPrEC; 96 hours): 50% | increase in PAX2 expression compared to untreated hPrEC (HPrEC; 96 hours): 79% | DEFB1 expression (HPrEC; [6]): reduced significantly | PAX2 expression (HPrEC; [6]): dramatic increases in PAX2 to levels similar to PC3 prostate cancer cells | PAX2 expression as % of PAX2 levels in PC3 (HPrEC; 72 hours): 77% | PAX2 expression as % of PAX2 levels in PC3 (HPrEC; 96 hours): 89% | increase in proliferation (DU145 [3]; DU145, 5 μM AngII): 2 fold | increase in proliferation (DU145 [3]; DU145, 10 μM AngII): > 3 fold | increase in proliferation rate (DU145 [3]; DU145, AngII 5 or 10 uM): two- to three-fold increase | phospho-JNK protein levels (DU145 [2]): increased phosphor-JNK protein levels | PAX2 expression over time (DU145 [2]; DU145, AngII, 30 min to 48 hour (FIG. 19)): increased as early as 4 hours and persisted until 48 hours; also recorded: progressively increased over time | PAX2 expression increase (DU145 [5]; DU145, 5 μM AngII, 72 hours (FIG. 21 legend)): 2 fold | PAX2 expression increase (DU145 [5]; DU145, 10 μM AngII, 72 hours (FIG. 21 legend)): > 3 fold
